# Reference: patent US12404285B2, “KRAS G12D proteolysis targeting chimeras” (PAQ Therapeutics Inc., priority 2022, dated 2025)
# Molecular target: T1, KRAS in AGS cells (KRAS G12D mutant cell line) or LS180 cells (KRAS G12D mutant cell line) (Homo sapiens, UniProt P01116, G12D)
# T1 construct: CRL-187 (LS180) (so in the source); host or cells: AGS or LS180 cells
# Experiment: KRAS Western Blot (WB) assay
# Format: cell-based
# Conditions: KRAS degradation, 24 hours incubation, normalized to β-actin
# Description: Day 1. Seeded AGS cells (KRAS G12D mutant cell line, ATCC, CRL-1739) or LS180 cells (KRAS G12D mutant cell line, ATCC, CRL-187) into 6-well plates (cell density: 3×10^5 cells/well/2 ml medium) in Ham's F-12 medium (Invitrogen, 11765-054) or Eagle's Minimum Essential Medium (ATCC, 30-2003) and incubated overnight at 37° C. and 5% CO2.
# Day 2. Aspirated 1 ml medium from each well and added 1 ml medium containing DMSO or test compound into the well to achieve the desired final concentration. Mixed well by gentle shaking and incubated for 24 hours.
# Day 3. Aspirated media from plates; washed cells with 2 ml 4° C. PBS (Solarbio, P1020-500) and aspirated the PBS. Then added 100 μl 4° C. […] lysis buffer (Boston BioProducts BP-115D) with protease and phosphatase inhibitors at vendor recommended concentrations (Roche 05892791001 and 04906837001) into each well to lyse the cells, and incubated for 20 minutes at 4° C. Cell lysate was collected into 1.5 ml Eppendorf tube, and the lysate was sonicated at 4° C. for 2 minutes (5 second pulse at 30% power with 10 second intermissions). The lysate was centrifuged at 12,000 rpm for 15 minutes at 4° C. The supernatant was transferred to a fresh Eppendorf tube, and protein concentration was quantified using a BCA kit (Solarbio, PC0020-500). Mixed the cell lysate and 5×NuPAGE SDS Loading Buffer (Beyotime, P0015L), and heated at 95° C. for 10 minutes in a heat block. Prepared samples were stored at −80° C. until SDS-PAGE procedure.
# Day 4. Loaded 15 μg protein from each sample onto NuPAGE® Novex 4-12% Bis-Tris Midi Gel, 26 W (Invitrogen, WG1403BOX) and ran the gel at 120V for 1.5 hours in 1×NuPAGE® MOPS SDS Running Buffer (Novex, NP0001). Electrotransferred to nitrocellulose membrane using dry transfer method (iBlot 2 Transfer Stacks, nitrocellulose, IB23001) with a program consisting of 20V for 1 minute, 23V for 4 minutes and 25V for 2 minutes. Blocked the membrane with 5% BSA (Solarbio, A8020) in 1×TBST (CST, 9997S) for 1 hour at room temperature. Incubated with KRAS antibody (LSBio, LS-C175665, clone 2C1) at 1:1000 dilution and β-actin antibody at 1:1000 dilution (CST, 4970S) in TBST containing 1% BSA (Solarbio, A8020) at 4° C. overnight.
# Day 5. Washed nitrocellulose membrane three times with 1×TBST for 10 minutes each at room temperature. Incubated with fluorescently labeled secondary antibodies at 1:5000 dilution in TBST containing 1% BSA (anti-rabbit IgG, Licor, 926-32211; anti-mouse IgG, LI-COR, 926-68070) for 1 hour at room temperature. Washed membrane three times with TBST, 10 minutes each. Scanned the membrane on LiCOR scanner for fluorescent signal(s) and quantified KRAS bands and β-actin bands for normalization.
# The data are reported in Table 2, wherein “A” indicates a DC50 of less than 1 μM; “B” indicates a DC50 of greater than or equal to 1 μM and less than 10 μM; and “C” indicates a DC50 of greater than or equal to 10 μM.
# T1 sequence (P01116 1-188 isoform P01116-2 G12D): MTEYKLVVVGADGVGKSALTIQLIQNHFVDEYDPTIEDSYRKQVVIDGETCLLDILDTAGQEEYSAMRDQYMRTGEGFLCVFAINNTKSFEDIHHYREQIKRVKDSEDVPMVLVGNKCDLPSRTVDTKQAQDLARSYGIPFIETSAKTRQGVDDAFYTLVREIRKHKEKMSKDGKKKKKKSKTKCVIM
row,DC50,SMILES
1,C (DC50 greater than or equal to 10 μM),"C#Cc1c(F)ccc2cc(O)cc(-c3ncc4c(N5CC6CCC(C5)N6)nc(OC[C@@]56CCCN5[C@H](COC(=O)NCCCCCc5cccc7c5n(C)c(=O)n7C5CCC(=O)NC5=O)CC6)nc4c3F)c12 (stereo partly drawn) [Compound 007, [(3S,8S)-8-[[4-(3,8-diazabicyclo[3.2.1]octan-3-yl)-7-(8-ethynyl-7-fluoro-3-hydroxy-1-naphthyl)-8-fluoro-pyrido[4,3-d]pyrimidin-2-yl]oxymethyl]-1,2,3,5,6,7-hexahydropyrrolizin-3-yl]methyl N-[5-[1-(2,6-dioxo-3-piperidyl)-3-methyl-2-oxo-benzimidazol-4-yl]pentyl]carbamate]"
2,A (DC50 less than 1 μM),"C#Cc1c(F)ccc2cc(O)cc(-c3ncc4c(N5CC6CCC(C5)N6)nc(OC[C@@]56CCCN5[C@H](COC(=O)NCCCCCCCCCCCc5ccc7c(c5)n(C)c(=O)n7C5CCC(=O)NC5=O)CC6)nc4c3F)c12 (stereo partly drawn) [Compound 009, [(3S,8S)-8-[[4-(3,8-diazabicyclo[3.2.1]octan-3-yl)-7-(8-ethynyl-7-fluoro-3-hydroxy-1-naphthyl)-8-fluoro-pyrido[4,3-d]pyrimidin-2-yl]oxymethyl]-1,2,3,5,6,7-hexahydropyrrolizin-3-yl]methyl N-[11-[1-(2,6-dioxo-3-piperidyl)-3-methyl-2-oxo-benzimidazol-5-yl]undecyl]carbamate]"
3,A (DC50 less than 1 μM),"C#Cc1c(F)ccc2cc(O)cc(-c3ncc4c(N5CC6CCC(C5)N6)nc(OC[C@@]56CCCN5[C@H](COC(=O)NCCCCCCCCCc5ccc7c(c5)n(C)c(=O)n7C5CCC(=O)NC5=O)CC6)nc4c3F)c12 (stereo partly drawn) [Compound 010, [(3S,8S)-8-[[4-(3,8-diazabicyclo[3.2.1]octan-3-yl)-7-(8-ethynyl-7-fluoro-3-hydroxy-1-naphthyl)-8-fluoro-pyrido[4,3-d]pyrimidin-2-yl]oxymethyl]-1,2,3,5,6,7-hexahydropyrrolizin-3-yl]methyl N-[9-[1-(2,6-dioxo-3-piperidyl)-3-methyl-2-oxo-benzimidazol-5-yl]nonyl]carbamate]"
4,A (DC50 less than 1 μM),"C#Cc1c(F)ccc2cc(O)cc(-c3ncc4c(N5CC6CCC(C5)N6)nc(OC[C@@]56CCCN5[C@H](COC(=O)NCCCCCCCCCCCc5cccc7c5n(C)c(=O)n7C5CCC(=O)NC5=O)CC6)nc4c3F)c12 (stereo partly drawn) [Compound 011, [(3S,8S)-8-[[4-(3,8-diazabicyclo[3.2.1]octan-3-yl)-7-(8-ethynyl-7-fluoro-3-hydroxy-1-naphthyl)-8-fluoro-pyrido[4,3-d]pyrimidin-2-yl]oxymethyl]-1,2,3,5,6,7-hexahydropyrrolizin-3-yl]methylN-[11-[1-(2,6-dioxo-3-piperidyl)-3-methyl-2-oxo-benzimidazol-4-yl]undecyl]carbamate]"
5,A (DC50 less than 1 μM),C#Cc1c(F)ccc2cc(O)cc(-c3ncc4c(N5CC6CCC(C5)N6)nc(OC[C@@]56CCCN5[C@H](COC(=O)NCCCCCCCCCc5cccc7c5n(C)c(=O)n7C5CCC(=O)NC5=O)CC6)nc4c3F)c12 (stereo partly drawn) [Compound 012]

# The remaining lines, values behind:
row,SMILES,DC50
1,"C#Cc1c(F)ccc2cc(O)cc(-c3ncc4c(N5CC6CCC(C5)N6)nc(OC[C@@]56CCCN5[C@H](COC(=O)NCCCc5ccc7c(c5)n(C)c(=O)n7C5CCC(=O)NC5=O)CC6)nc4c3F)c12 (stereo partly drawn) [Compound 001, [(3S,8S)-8-[[4-(3,8-diazabicyclo[3.2.1]octan-3-yl)-7-(8-ethynyl-7-fluoro-3-hydroxy-1-naphthyl)-8-fluoro-pyrido[4,3-d]pyrimidin-2-yl]oxymethyl]-1,2,3,5,6,7-hexahydropyrrolizin-3-yl]methyl N-[3-[1-(2,6-dioxo-3-piperidyl)-3-methyl-2-oxo-benzimidazol-5-yl]propyl]carbamate]",C (DC50 greater than or equal to 10 μM)
2,"C#Cc1c(F)ccc2cc(O)cc(-c3ncc4c(N5CC6CCC(C5)N6)nc(OC[C@@]56CCCN5[C@H](COC(=O)NCCc5ccc7c(c5)n(C)c(=O)n7C5CCC(=O)NC5=O)CC6)nc4c3F)c12 (stereo partly drawn) [Compound 002, [(3S,8S)-8-[[4-(3,8-diazabicyclo[3.2.1]octan-3-yl)-7-(8-ethynyl-7-fluoro-3-hydroxy-1-naphthyl)-8-fluoro-pyrido[4,3-d]pyrimidin-2-yl]oxymethyl]-1,2,3,5,6,7-hexahydropyrrolizin-3-yl]methyl N-[2-[1-(2,6-dioxo-3-piperidyl)-3-methyl-2-oxo-benzimidazol-5-yl]ethyl]carbamate]",C (DC50 greater than or equal to 10 μM)
3,"C#Cc1c(F)ccc2cc(O)cc(-c3ncc4c(N5CC6CCC(C5)N6)nc(OC[C@@]56CCCN5[C@H](COC(=O)NCCCc5cccc7c5n(C)c(=O)n7C5CCC(=O)NC5=O)CC6)nc4c3F)c12 (stereo partly drawn) [Compound 003, [(3S,8S)-8-[[4-(3,8-diazabicyclo[3.2.1]octan-3-yl)-7-(8-ethynyl-7-fluoro-3-hydroxy-1-naphthyl)-8-fluoro-pyrido[4,3-d]pyrimidin-2-yl]oxymethyl]-1,2,3,5,6,7-hexahydropyrrolizin-3-yl]methylN-[3-[1-(2,6-dioxo-3-piperidyl)-3-methyl-2-oxo-benzimidazol-4-yl]propyl]carbamate]",C (DC50 greater than or equal to 10 μM)
4,"C#Cc1c(F)ccc2cc(O)cc(-c3ncc4c(N5CC6CCC(C5)N6)nc(OC[C@@]56CCCN5[C@H](COC(=O)NCCc5cccc7c5n(C)c(=O)n7C5CCC(=O)NC5=O)CC6)nc4c3F)c12 (stereo partly drawn) [Compound 004, [(3S,8S)-8-[[4-(3,8-diazabicyclo[3.2.1]octan-3-yl)-7-(8-ethynyl-7-fluoro-3-hydroxy-1-naphthyl)-8-fluoro-pyrido[4,3-d]pyrimidin-2-yl]oxymethyl]-1,2,3,5,6,7-hexahydropyrrolizin-3-yl]methyl N-[2-[1-(2,6-dioxo-3-piperidyl)-3-methyl-2-oxo-benzimidazol-4-yl]ethyl]carbamate]",C (DC50 greater than or equal to 10 μM)
5,"C#Cc1c(F)ccc2cc(O)cc(-c3ncc4c(N5CC6CCC(C5)N6)nc(OC[C@@]56CCCN5[C@H](COC(=O)NCCCCCc5ccc7c(c5)n(C)c(=O)n7C5CCC(=O)NC5=O)CC6)nc4c3F)c12 (stereo partly drawn) [Compound 005, [(3S,8S)-8-[[4-(3,8-diazabicyclo[3.2.1]octan-3-yl)-7-(8-ethynyl-7-fluoro-3-hydroxy-1-napht-hyl)-8-fluoro-pyrido[4,3-d]pyrimidin-2-yl]oxymethyl]-1,2,3,5,6,7-hexahydropyrrolizin-3-yl]methyl N-[5-[1-(2,6-dioxo-3-piperidyl)-3-methyl-2-oxo-benzimidazol-5-yl]pentyl]carbamate]",C (DC50 greater than or equal to 10 μM)
6,"C#Cc1c(F)ccc2cc(O)cc(-c3ncc4c(N5C[C@H]6CC[C@@H](C5)N6)nc(OC[C@@]56CCCN5[C@H](COC(=O)NCCCCc5ccc7c(c5)n(C)c(=O)n7C5CCC(=O)NC5=O)CC6)nc4c3F)c12 (stereo partly drawn) [Compound 006, ((3S,7aS)-7a-(((4-((1R,5S)-3,8-diazabicyclo[3.2.1]octan-3-yl)-7-(8-ethynyl-7-fluoro-3-hydroxynaphthalen-1-yl)-8-fluoropyrido[4,3-d]pyrimidin-2-yl)oxy)methyl)hexahydro-1H-pyrrolizin-3-yl)methyl (4-(1-(2,6-dioxopiperidin-3-yl)-3-methyl-2-oxo-2,3-dihydro-1H-benzo[d]imidazol-5-yl)butyl)carbamate]",C (DC50 greater than or equal to 10 μM)
7,"C#Cc1c(F)ccc2cc(O)cc(-c3ncc4c(N5C[C@H]6CC[C@@H](C5)N6)nc(OC[C@@]56CCCN5[C@H](COC(=O)NCCCCc5cccc7c5n(C)c(=O)n7C5CCC(=O)NC5=O)CC6)nc4c3F)c12 (stereo partly drawn) [Compound 008, ((3S,7aS)-7a-(((4-((1R,5S)-3,8-diazabicyclo[3.2.1]octan-3-yl)-7-(8-ethynyl-7-fluoro-3-hydroxynaphthalen-1-yl)-8-fluoropyrido[4,3-d]pyrimidin-2-yl)oxy)methyl)hexahydro-1H-pyrrolizin-3-yl)methyl (4-(1-(2,6-dioxopiperidin-3-yl)-3-methyl-2-oxo-2,3-dihydro-1H-benzo[d]imidazol-4-yl)butyl)carbamate]",B (DC50 greater than or equal to 1 μM and less than 10 μM)
